US11919880B2, “HCV protease inhibitors” (The Regents of the University of California, priority 2020, dated 2024)
“And” between values parts separate entries of the source, which are not always exact repeats. Equal values may be shown once. Read-outs that look alike come from different tables or passages of the source.

What was measured:
[1] = system: sub-genomic HCV GT1b replicon (BM4-5 FEO), GT1b WT; assay: HCV replicon assay (luciferase antiviral efficacy); format: cell-based, hepatitis C virus; conditions: BM4-5 FEO cells, 48 h, read-out: EC50 ± SD Gt 1b wt
Method: (§1) The 20 compounds from class C were tested […] for inhibition of viral replication (GT1b wild-type) in BM4-5 FEO cells and for mammalian cell cytotoxicity. The numbers of virus particles were evaluated by quantifying luciferase produced during the virus life cycle^41 while toxicity was evaluated using a cell viability assay. […] Prior to additional biochemical studies, several key chemical properties for each of the Class C molecules were determined.
Replicon construct. The BM4-5 replicon is a sub-genomic HCV GT1b replicon that contains adaptive mutation of serine in the NS5A region^41. The firefly luciferase gene was added into the BM4-5 replicon to generate BM4-5 FEO replicon. The construction procedures have been previously described^42.
(§2) Luciferase antiviral efficacy and cells viability assays. BM4-5 FEO replicon approximately 10,000 cells in 100 μL of medium were seeded into 96-well plates and incubate for 6 h for attachment. Then, the compounds were added at to the wells in specific concentration and incubate for 48 h. The luciferase assay (Bright-Glo; Promega) was carried out according to the manufacturer's instructions. Luciferase activity was determined using a microplate luminometer (Veritas microplate luminometer; Turner Biosystems). For cells viability assays, BM4-5 FEO at the density 10,000 cells in 100 μL medium was incubated at 37° C. for 6 h for attachment, then the compounds were added and incubated for another 48 hours. The number of living cells were measured by Cell Titer-blue assay (Promega). The fluorescence absorption (560Ex/590Em) for 96-well plate was read by Benchmark Scientific MR9600 with. The activity and toxicity of each compound were measured by at least six different concentrations in triplicate.

[2] = target: T1, recombinant HCV NS3/4A GT1b WT (Hepatitis C virus genotype 1b, UniProt Q9WMX2); assay: biochemical; format: biochemical
T1 construct: recombinant HCV NS3/4A GT1b WT
T1 sequence (Q9WMX2 1658-1711): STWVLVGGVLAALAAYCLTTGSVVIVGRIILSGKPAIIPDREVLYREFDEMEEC
T1 sequence (Q9WMX2 1027-1657): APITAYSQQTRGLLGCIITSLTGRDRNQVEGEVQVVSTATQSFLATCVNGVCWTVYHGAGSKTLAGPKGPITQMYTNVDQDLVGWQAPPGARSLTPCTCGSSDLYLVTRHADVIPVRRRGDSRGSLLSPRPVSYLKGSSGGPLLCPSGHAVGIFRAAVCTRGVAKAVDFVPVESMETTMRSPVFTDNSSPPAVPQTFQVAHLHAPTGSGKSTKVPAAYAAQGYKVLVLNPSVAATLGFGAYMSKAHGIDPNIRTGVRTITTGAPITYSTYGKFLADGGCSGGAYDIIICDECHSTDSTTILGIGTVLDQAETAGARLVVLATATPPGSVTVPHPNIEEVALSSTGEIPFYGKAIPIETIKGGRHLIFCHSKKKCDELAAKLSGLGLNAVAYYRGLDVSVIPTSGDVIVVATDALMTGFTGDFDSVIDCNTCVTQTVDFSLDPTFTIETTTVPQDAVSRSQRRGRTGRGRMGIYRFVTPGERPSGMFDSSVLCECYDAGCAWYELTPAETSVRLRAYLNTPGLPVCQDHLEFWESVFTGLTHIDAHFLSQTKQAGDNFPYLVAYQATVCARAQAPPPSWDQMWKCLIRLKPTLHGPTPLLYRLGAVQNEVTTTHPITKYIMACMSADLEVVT
Method: (§3) In order to validate that this group of molecules elicit their cellular effects via inhibition of the viral protease, we incubated compounds 1, 12 and 22 with recombinant NS3/4A protease GT1b and an inhibitor-resistant mutant containing a D168A mutation. D168 is located in the S2 and S4 sub-pockets and mutations in these sub-pockets can cause significant resistance to the inhibitors resulting in decreased activity of peptidomimetic inhibitors^21,37-38. […] As a control, potency was evaluated using the approved HCV protease inhibitor, simeprevir.
(§4) HCV NS3/4A enzymatic inhibition assay. The activities of two proteases (recombinant HCV NS3/4A GT1b WT and full-length HCV NS3/4A GT1b D168A) were measured using a fluorogenic substrate, Ac-Glu-Glu-Val-Val-Ala-Cys-AMC (Sigma-Aldrich) where AMC corresponds to 7-amino-4-methylcourmarin. Assays were performed in 50 mM HEPES pH 7.4, 15 mM NaCl, 0.01% Triton X-100, 10 mM DTT in a black 384-well microplate (BD Falcon). […] Fluorescence was monitored at excitation and emission wavelengths of 360 nm and 460 nm in a Synergy™ HTX Multi-Mode Microplate Reader (BioTek). Data was visualized using Gen5™ Software (Biotek). The activity of enzyme was calculated from the change in relative fluorescence units (RFU) over time. For inhibition assays, compounds were pre-incubated with enzyme for 240 minutes prior to adding the enzyme/inhibitor mixture to the substrate. All assays were performed in triplicate wells.

[3] = target: T2, full-length HCV NS3/4A GT1b D168A (Hepatitis C virus genotype 1b, UniProt Q9WMX2, D1194A); assay: biochemical; format: biochemical
T2 construct: full-length HCV NS3/4A GT1b D168A; His tag; made in house; host or cells: E. coli Rosetta 2(DE3)
T2 sequence (Q9WMX2 1027-1657, looked up, stated change not applied): as the sequence (Q9WMX2 1027-1657) above
T2 sequence (Q9WMX2 1658-1711, stated change not applied): as the sequence (Q9WMX2 1658-1711) above
Method: as §3
(§5) Plasmid construction and purification of HCV NS3/A protein. Drug resistant mutant D168A was generated by mutagenesis using NS3-containing recombinant plasmid (pETDuet-1 Hepatis C Virus NS3/4A, a gift from Michael Johnson, Addgene plasmid #16196) as a template. The single mutation of aspartic acid (D) to alanine (A) was introduced by mutagenesis at position 168 using specific primers (Forward: 5′-[…]-3′ and Reverse: 5′-[…]-3′). The over expression and purification were preformed followed the method that previously described^43. Rosetta 2(DE3) cells (Novagen) containing the modified recombinant plasmid with histidine tag were grown in Lysogeny Broth medium. The over expression was introduced by addition of Isopropyl β-D-1-thiogalactopyranoside (IPTG) to the final concentration of 0.5 mM and the bacteria were incubated at room temperature for 16 h. […] The solution was passed through Ni-NTA column and washed by buffer B (50 mM HEPES, pH 7.6, 500 mM NaCl, 50 mM imidazole, 5 mM β-MCE, 0.2% Triton X-100, and 15% glycerol). The His-tag fused protein was eluted by buffer C (50 mM HEPES, pH 7.6, 500 mM of NaCl, 500 mM of imidazole, 5 mM β-MCE, 0.2% Triton X-100, and 15% glycerol) followed by dialysis using buffer (50 mM HEPES, pH 7.6 and 500 mM of NaCl). Purified NS3/4A protein was concentrated an d buffer exchanged into buffer D (50 mM HEPES, pH 7.6, 500 mM of NaCl, 5 mM β-MCE, 0.2% Triton X-100, and 50% glycerol) using a protein concentrator 10 k (Amicon®).
as §4

BM4-5 human liver cells = assay: CellTiter-Blue cell viability assay; format: cell-based; conditions: BM4-5 FEO cells, 48 h, read-out: LC50 ± SD
Method: as §1, with “determined. Calculated polar surface area (PSA), lipophilicity (LogP), and molecular weight for each compound (Table IA) complied with the general criteria for drug-like molecules.” for “determined.”
as §2

[4] = system: full-length HCV NS3/4A GT1b D168A; assay: biochemical; format: biochemical, hepatitis C virus; conditions: for IC50—D168A/IC50—wt ratio: D168A mutant versus wt protease
Method: as §3, §5, §4

[5] = Potentiometric titration, Sirius T3 instrument; format: physicochemical
Text: As highlighted in Scheme 1, the tryptophan derived HCV NS3/4 protease inhibitors, 21 and 22, were synthesized starting from 3-(piperidine-1-yl)propan-1-amine (23), which could be accessed in two steps from commercially available N-(bromopropyl)phthalimide and piperidine, and N-Boc protected L-tryptophan (24). Thus, HBTU mediated coupling of […] and 24, followed by N-Boc deprotection and carbamoylation reaction with the appropriate isocyanate provided the desired compounds. 21 and 22. These test compounds were characterized by ^1H-NMR, ^13C-NMR, and HRMS. In addition, experimental pKa values, lipophilicity (LogP), and LogD7.4 of 22 were determined via potentiometric titrations using a Sirius T3 instrument. Compounds 21 and 22, as well as the 20 compounds from the primary screen, were then tested in cell-based assays to evaluate activity against HCV and toxicity to the host cells (Table 2).

bovine trypsin = target: T3, bovine trypsin (Bos taurus, UniProt P00760); assay: Counter-screening assay, trypsin; format: biochemical; conditions: 13.08 and 14.68, 5.2 μM of 1, 12, and 22, respectively; 40 nM enzyme
T3 construct: purchased Sigma
T3 sequence (P00760 24-246): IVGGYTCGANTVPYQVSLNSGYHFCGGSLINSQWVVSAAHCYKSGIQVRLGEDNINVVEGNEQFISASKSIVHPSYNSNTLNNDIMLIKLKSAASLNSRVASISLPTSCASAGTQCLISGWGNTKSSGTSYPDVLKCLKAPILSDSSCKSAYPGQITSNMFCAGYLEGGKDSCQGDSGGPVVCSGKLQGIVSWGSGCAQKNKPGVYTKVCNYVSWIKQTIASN
Method: (§6) In addition, we tested these compounds for inhibition against the fungal serine protease, proteinase K that is structurally related to several mammalian serine proteases such as the proprotein convertase enzymes and furin^44.
(§7) Counter-screening assay. Counter-screening assays were performed with 40 nM of bovine trypsin (Sigma), pig pancreatic elastase (Sigma), human chymotrypsin and proteinase k and 60 μM of the appropriate fluorogenic substrates for trypsin, elastase, chymotrypsin, and proteinase K are Boc-Leu-Arg-Arg-AMC (trypsin), Me-Arg-Arg-Pro-Val-AMC (elastase) and Suc-Arg-Arg-Pro-Phe-AMC (chymotrypsin and proteinase K). Assays were performed in 50 mM HEPES pH 7.4, 15 mM NaCl, 0.01% Triton X-100 in black 96-well microplates (BD Falcon) at a final volume of 50 μL. The final concentration of DMSO in each well was 2.5%. Fluorescence was measured as outlined above.

pig pancreatic elastase = target: T4, pig pancreatic elastase (Sus scrofa, UniProt P00772); assay: Counter-screening assay, elastase; format: biochemical; conditions: 13.08 and 14.68, 5.2 μM of 1, 12, and 22, respectively; 40 nM enzyme
T4 construct: purchased Sigma
T4 sequence (P00772 27-266): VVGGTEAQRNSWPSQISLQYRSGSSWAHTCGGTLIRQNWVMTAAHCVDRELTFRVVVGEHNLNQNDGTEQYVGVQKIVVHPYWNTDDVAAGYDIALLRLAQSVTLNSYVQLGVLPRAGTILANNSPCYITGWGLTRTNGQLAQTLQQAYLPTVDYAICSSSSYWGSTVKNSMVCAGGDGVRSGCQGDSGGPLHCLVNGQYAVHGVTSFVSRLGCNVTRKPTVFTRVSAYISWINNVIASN
Method: as §6, §7

human chymotrypsin = human chymotrypsin (Homo sapiens, UniProt P17538); assay: Counter-screening assay, chymotrypsin; format: biochemical; conditions: 13.08 and 14.68, 5.2 μM of 1, 12, and 22, respectively; 40 nM enzyme
Chain of human chymotrypsin (P17538 19-263): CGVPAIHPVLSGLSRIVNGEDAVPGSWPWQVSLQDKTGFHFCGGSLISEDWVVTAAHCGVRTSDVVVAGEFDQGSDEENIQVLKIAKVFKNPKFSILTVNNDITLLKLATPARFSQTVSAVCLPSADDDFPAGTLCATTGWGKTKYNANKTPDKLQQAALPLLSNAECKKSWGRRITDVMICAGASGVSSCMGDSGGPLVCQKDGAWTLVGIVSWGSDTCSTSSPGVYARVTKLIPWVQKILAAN
Method: as §6, §7

proteinase K = proteinase K (Parengyodontium album, UniProt P06873); assay: Counter-screening assay, proteinase K; format: biochemical, fungal; conditions: 13.08 and 14.68, 5.2 μM of 1, 12, and 22, respectively; 40 nM enzyme
Chain of proteinase K (P06873 106-384): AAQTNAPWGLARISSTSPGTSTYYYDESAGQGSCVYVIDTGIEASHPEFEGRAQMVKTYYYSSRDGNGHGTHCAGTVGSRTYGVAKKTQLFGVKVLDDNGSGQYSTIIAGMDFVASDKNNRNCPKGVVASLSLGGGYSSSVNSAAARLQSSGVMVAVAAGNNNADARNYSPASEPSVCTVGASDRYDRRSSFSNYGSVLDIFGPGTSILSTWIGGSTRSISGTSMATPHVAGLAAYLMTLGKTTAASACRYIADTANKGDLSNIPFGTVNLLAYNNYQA
Method: as §6, §7

[6] = 40 nM enzyme, 60 μM Ac-Glu-Glu-Val-Val-Ala-Cys-AMC, 240 min pre-incubation, read-out: IC50 GT1b WT
[7] = 40 nM enzyme, 60 μM Ac-Glu-Glu-Val-Val-Ala-Cys-AMC, 240 min pre-incubation, read-out: IC50 GT1b D168A

Compound | EC50 [1] [µM] | CC50 (BM4-5 human liver cells) [µM] | also measured
C[C@H]1CCCCN1CCCNC(=O)C(Cc1c[nH]c2ccccc12)NC(=O)Nc1cccc(Br)c1 (some centres unmarked) [Compound 1] | – | – | EC50 ([1]; Hepatitis C virus, GT1B): 0.95 ± 0.26 µM; IC50 [2]: 14.7 ± 1.23 µM; IC50 [3]: 11.4 ± 0.45 µM
O=C(Nc1ccccc1Br)NC(Cc1c[nH]c2ccccc12)C(=O)NCCCNC1CCCCC1O (centres unmarked) [Compound 18] | 4.58 ± 0.32 | – | –
COc1ccc(OC)c(NC(=O)NC(Cc2c[nH]c3ccccc23)C(=O)NCCCN2CCCCC2C)c1 (centres unmarked) [Compound 9] | 51.4 ± 15.2 | > 100 | –
CC1CCCC(C)N1NCCCNC(=O)C(Cc1c[nH]c2ccccc12)NC(=O)Nc1ccccc1Br (centres unmarked) [Compound 14] | 5.15 ± 0.63 | – | –
COc1ccc2c(O[C@@H]3C[C@H]4C(=O)N[C@]5(C(=O)NS(=O)(=O)C6CC6)C[C@H]5/C=C\CCCCN(C)C(=O)[C@@H]4C3)cc(-c3nc(C(C)C)cs3)nc2c1C [Simeprevir, reference compound] | – | – | IC50 [2, 6]: 0.043 µM; IC50 [3, 7]: 0.247 ± 0.39 µM; IC50—D168A/IC50—wt ratio [4]: 5.7
O=C(Nc1ccccc1Br)NC(Cc1c[nH]c2ccccc12)C(=O)NCCCNC1CCC(O)CC1 (centres unmarked) [Compound 19] | 32.6 ± 14.8 | > 100 | –
O=C(Nc1cccc(Br)c1)N[C@@H](Cc1c[nH]c2ccccc12)C(=O)NCCCN1CCCCC1 [Compound 21] | 1.3 ± 1.25 | 29.5 ± 1.48 | –
CC1CCCCN1CCCNC(=O)C(Cc1c[nH]c2ccc(F)cc12)NC(=O)Nc1cc(Cl)ccc1Cl (centres unmarked) [Compound 2] | 6.12 ± 2.3 | – | –
CC1CCCCN1CCCNC(=O)C(Cc1c[nH]c2ccccc12)NC(=O)Nc1c(F)cc(Br)cc1F (centres unmarked) [Compound 13] | 35.4 ± 7.71 | – | –
O=C(Nc1ccccc1Br)NC(Cc1c[nH]c2ccccc12)C(=O)NCCCNC1CC2CCC1C2 (centres unmarked) [Compound 11] | 5.99 ± 2.61 | – | –
CC(=O)c1cccc(NC(=O)NC(Cc2c[nH]c3ccccc23)C(=O)NCCCN2CCCCC2C)c1 (centres unmarked) [Compound 8] | 10.9 ± 4.93 | > 100 | –
COc1ccc2[nH]cc(CC(NC(=O)Nc3cc(Cl)ccc3Cl)C(=O)NCCCN3CCCCC3C)c2c1 (centres unmarked) [Compound 10] | 33.2 ± 3.17 | > 100 | –
CC(C)c1ccc(NC(=O)NC(Cc2c[nH]c3ccccc23)C(=O)NCCCN2CCCC[C@@H]2C)cc1 (some centres unmarked) [Compound 12] | – | – | EC50 ([1]; Hepatitis C virus, GT1B): 1.5 ± 0.07 µM; IC50 [2]: 13.1 ± 2.77 µM; IC50 [3]: 11.5 ± 0.55 µM
CCOC(=O)C1CCCCN1CCCNC(=O)C(Cc1c[nH]c2ccccc12)NC(=O)Nc1ccccc1Br (centres unmarked) [Compound 17] | 2.98 ± 1.08 | – | –
CC1CCCCN1CCCNC(=O)C(Cc1c[nH]c2ccccc12)NC(=O)Nc1ccc(N(C)C)cc1 (centres unmarked) [Compound 6] | 63.4 ± 11 | > 100 | –
CC(C)c1ccc(NC(=O)N[C@@H](Cc2c[nH]c3ccccc23)C(=O)NCCCN2CCCCC2)cc1 [Compound 22] | 0.64 ± 0.13 | 47 ± 6.98 | IC50 [2, 6]: 5.2 µM and 4.6 µM; Potency lower than simeprevir ([2]; wt protease IC50 compared with simeprevir): 120 fold; IC50 [3, 7]: 5.98 ± 0.43 µM; IC50—D168A/IC50—wt ratio [4]: 1.4; Change in potency, D168A mutant versus wt protease ([4]; result in words): no significant reduction on potency; Experiment value of logP [5]: 4.1; Decrease of trypsin activity (bovine trypsin): did not decrease activity; Decrease of elastase activity (pig pancreatic elastase): did not decrease activity; Decrease of chymotrypsin activity (human chymotrypsin): did not decrease activity; Decrease of proteinase K activity (proteinase K): did not decrease activity
Cc1ccc2[nH]cc(CC(NC(=O)Nc3cc(Cl)ccc3Cl)C(=O)NCCCN3CCCCC3C)c2c1 (centres unmarked) [Compound 7] | 6.35 ± 1.11 | – | –
O=C(Nc1cccc(Br)c1)NC(Cc1c[nH]c2ccccc12)C(=O)NCCCNC1CCCCCC1 (centres unmarked) [Compound 15] | 6.82 ± 0.74 | – | –
